Counter-ions that a name gives are not always drawn. Like-named read-outs stand apart in the source and are kept apart here.
How the values were obtained:
[1] = test system: scn1Lab mutant zebrafish; assay type: in vivo, Danio rerio (zebrafish); conditions: for inhibition of spontaneous seizure behavior, initial screen: 667 μM; for swim activity / seizure behavior, third trial: 100 μM
[2] = test system: scn1Lab mutant zebrafish; assay type: in vivo, Danio rerio (zebrafish); conditions: for forebrain electrographic seizure activity after the locomotion assay: 100 μM
[3] = test system: WT zebrafish exposed to 15 mM pentylenetetrazole; assay: PTZ-induced seizure behavior, locomotion assay; assay type: in vivo; conditions: 100 μM, n=10
[4] = test system: wild-type larvae; assay: DMSO toxicity in larvae; conditions: dilutions between 0.01 and 100%; n=12 fish per concentration
[5] = test system: mice; conditions: mouse, in vivo
[6] = test system: 6 Hz (32 mA) model; assay: 6 Hz (32 mA) model; assay type: in vivo, mice; conditions: identification screen IP
Experimental: ASP469016 was tested in our initial T31 (MES/scMET/Tox) screen at 30, 100, and 300 mg/kg. The data for each condition is presented as N/F, where N equals the number of animals protected and F equals the number of animals tested. For tests of toxicity (TOX), N equals the number of animals displaying toxic effects and F equals the number of animals tested. Codes in the C column refer to comments from the technicians performing the experiment and are defined in the comments section if necessary. Any deaths are noted. As shown in the 6 Hz (32 mA) model only 1/4 animals were protected at 100 mg/kg at 30 min. In the MES-induced seizure model only 1/4 animals were protected at 100 and 300 mg/kg at 30 min. No toxicity (unable to grasp rotorod) or activity was detected at any other dose or time point tested.

[7] = test system: scMET model; assay: scMET model; assay type: in vivo, mice; conditions: for N/F (animals protected over tested): IP quantification, 0.5 h
[8] = test system: MES-induced seizure model; assay: MES-induced seizure model; assay type: in vivo, mice; conditions: for ED50, MES: mice IP, 0.5 hrs
[9] = 1 mM (KD: 48 hr exposure), 5 dpf

SMILES: CCNC1(c2cccs2)CCCCC1=O (centres unmarked) [tiletamine]
- inhibition of spontaneous seizure behavior, initial screen ([1]; 5 dpf, 6-12 fish): ineffective

SMILES: CC(C)CCCC(C)NC(C)C (centres unmarked) [iproheptine]
- convulsive behavior (H1 antihistamines) ([1]; locomotor seizure assay, 5 dpf): failed to suppress convulsive behavior

SMILES: C#CCN(C)CCCOc1ccc(Cl)cc1Cl [clorgiline HCl]
- forebrain electrographic seizure activity after the locomotion assay [2]: electrographic seizure events were still observed
- swim activity / seizure behavior, third trial [1]: reduced swim activity
- seizure-induced swim activity and mean velocity, re-test ([1]; zebrafish, in vivo): effective in reducing seizure-induced swim activity and mean velocity

SMILES: CCC1(C)CC(=O)NC1=O (centres unmarked) [ethosuximide]
- fish in which epileptiform activity became more frequent ([2]; zebrafish, in vivo): 4 of 7
- effect on locomotor seizure behavior ([1]; zebrafish, in vivo): increased seizure behavior

SMILES: CC(C)(C)C(O)/C=C/c1ccc2c(c1)OCO2 (centres unmarked) [stiripentol]
- Epileptiform event frequency (burst frequency; interictal- and ictal-like discharges) ([2]; zebrafish, in vivo): reduced
- fractional time spent seizing ([2]; zebrafish, in vivo): reduced
- effect on locomotor seizure behavior ([1]; zebrafish, in vivo): effectively inhibited seizure behavior

SMILES: CC(=O)Nc1nnc(S(N)(=O)=O)s1 [Acetazolamide]
- effect on locomotor seizure behavior ([1]; zebrafish, in vivo): increased seizure behavior

SMILES: [Br-].[K+] [potassium bromide]
- Epileptiform event frequency (burst frequency; interictal- and ictal-like discharges) ([2]; zebrafish, in vivo): reduced
- fractional time spent seizing ([2]; zebrafish, in vivo): reduced
- effect on locomotor seizure behavior ([1]; zebrafish, in vivo): effectively inhibited seizure behavior

SMILES: O=C(CCCl)NCc1ccccc1 [beclamide]
- inhibition of spontaneous seizure behavior, initial screen [1]: ineffective

SMILES: Cc1ccc(C(=O)C(C)CN2CCCCC2)cc1 (centres unmarked) [tolperisone HCl]
- forebrain electrographic seizure activity after the locomotion assay [2]: electrographic seizure events were still observed
- swim activity / seizure behavior, third trial [1]: reduced swim activity
- seizure-induced swim activity and mean velocity, re-test ([1]; zebrafish, in vivo): effective in reducing seizure-induced swim activity and mean velocity

SMILES: NC(=O)N1c2ccccc2C=Cc2ccccc21 [carbamazepine]
- Epileptiform event frequency (burst frequency; interictal- and ictal-like discharges) ([2]; zebrafish, in vivo): increased burst frequency
- fish in which epileptiform activity became more frequent ([2]; zebrafish, in vivo): 2 of 7

SMILES: Clc1ccc(Cn2c(CN3CCCC3)nc3ccccc32)cc1 [clemizole]
- PTZ-induced seizure behavior [3]: effective in reducing seizure behavior
- forebrain electrographic seizure activity after the locomotion assay [2]: effective in suppressing spontaneous seizure activity
- burst duration ([2]; n=7): 154 ± 127 ms
- burst frequency ([2]; n=7): 0.2±0.01 bursts/min
- fractional time spent seizing ([2]; n=7): 0.03±0.02%
- swim activity / seizure behavior, third trial [1]: effective in suppressing spontaneous seizure activity
- seizure behavior in the locomotion assay ([1]; n=33): no significant effect
- seizure-induced swim activity and mean velocity, re-test ([1]; zebrafish, in vivo): effective in reducing seizure-induced swim activity and mean velocity

SMILES: CC[C@@H](C(N)=O)N1CCCC1=O [levetiracetam]
- effect on locomotor seizure behavior ([1]; zebrafish, in vivo): no effect

SMILES: CN1C(=O)CN=C(c2ccccc2)c2cc(Cl)ccc21 [diazepam]
- fractional time spent seizing ([2]; 1 mM bath applied, 5-6 dpf, vs baseline): reduced
- Epileptiform event frequency (burst frequency; interictal- and ictal-like discharges) ([2]; 1 mM bath applied, agar-embedded mutants 5-6 dpf, vs baseline, 7 fish per drug): reduced
- effect on locomotor seizure behavior [1, 9]: effectively inhibited seizure behavior

SMILES: CC(=O)[C@H]1CC[C@H]2[C@@H]3CC[C@H]4C[C@](C)(O)CC[C@]4(C)[C@H]3CC[C@]12C [ganaxolone]
- effect on locomotor seizure behavior [1, 9]: effective

SMILES: C=CC(N)CCC(=O)O (centres unmarked) [vigabatrin]
- Epileptiform event frequency (burst frequency; interictal- and ictal-like discharges) ([2]; zebrafish, in vivo): increased burst frequency
- fish in which epileptiform activity became more frequent ([2]; zebrafish, in vivo): 6 of 7

SMILES: NCC(O)CC(=O)O (centres unmarked) [aminohydroxybutyric acid]
- inhibition of spontaneous seizure behavior, initial screen ([1]; 5 dpf, 6-12 fish): ineffective

SMILES: CN1CCC(=C2c3ccccc3Sc3ccccc32)CC1 [pimethixene maleate]
- convulsive behavior (H1 antihistamines) ([1]; zebrafish, in vivo): failed to suppress convulsive behavior

SMILES: C[S+](C)[O-] [DMSO]
- lethal DMSO dilution [4]: > 25%

SMILES: CN1CCc2c(c3ccccc3n2Cc2ccccc2)C1.CN1CCc2c(c3ccccc3n2Cc2ccccc2)C1.O=S(=O)(O)c1cccc2c(S(=O)(=O)O)cccc12 [mebhydrolin napthalenesulfonate]
- convulsive behavior (H1 antihistamines) ([1]; zebrafish, in vivo): failed to suppress convulsive behavior

SMILES: Clc1ccc(Cn2c(CN3CCCC3)nc3ccccc32)cc1 [ASP469016]
- activity or toxicity (unable to grasp rotorod) [5]: No activity or toxicity
- N/F (animals toxic over tested) ([5]; 400 mg/kg): 0/8
- N/F (animals toxic over tested) ([5]; 500 mg/kg): 0/4
- ED50, TOX ([5]; ip): >500 mg/kg
- N/F (animals toxic over tested) ([5]; ip, 30 mg/kg): 0/8
- N/F (animals toxic over tested) ([5]; ip, 100 mg/kg): 0/8
- N/F (animals toxic over tested) ([5]; ip, 300 mg/kg): 0/8
- N/F (animals toxic over tested) ([5]; ip, 500 mg/kg): 0/4
- N/F (animals protected over tested) ([6]; 30 mg/kg, 0.5 h): 0/4
- N/F (animals protected over tested) ([6]; 30 mg/kg, 2.0 h): 0/4
- N/F (animals protected over tested) ([6]; 100 mg/kg, 0.5 h): 1/4
- N/F (animals protected over tested) ([6]; 100 mg/kg, 2.0 h): 0/4
- N/F (animals protected over tested) ([6]; 300 mg/kg, 0.5 h): 0/4
- N/F (animals protected over tested) ([6]; 300 mg/kg, 2.0 h): 0/4
- N/F (animals protected over tested) ([7]; 200 mg/kg): 0/8
- N/F (animals protected over tested) ([7]; 250 mg/kg): 0/4
- ED50, SCMET ([7]; mice IP, 0.5 hrs): >250.0 mg/kg
- activity in the scMET model ([7]; quantitative testing): No activity
- activity during determination of the TPE in the MES model ([8]; 300 mg/kg starting dose): no activity
- activity in the qualitative MES screen ([8]; 100 and 300 mg/kg doses): some activity
- N/F (animals protected over tested) ([8]; IP quantification, 350 mg/kg, 0.5 h): 0/8
- N/F (animals protected over tested) ([8]; IP quantification, 400 mg/kg, 0.5 h): 7/8
- N/F (animals protected over tested) ([8]; IP quantification, 500 mg/kg, 0.5 h): 4/4
- N/F (animals protected over tested) ([8]; identification screen IP, 30 mg/kg, 0.5 h): 0/4
- N/F (animals protected over tested) ([8]; identification screen IP, 30 mg/kg, 2.0 h): 0/4
- N/F (animals protected over tested) ([8]; identification screen IP, 100 mg/kg, 0.5 h): 1/4
- N/F (animals protected over tested) ([8]; identification screen IP, 100 mg/kg, 2.0 h): 0/4
- N/F (animals protected over tested) ([8]; identification screen IP, 300 mg/kg, 0.5 h): 1/4
- N/F (animals protected over tested) ([8]; identification screen IP, 300 mg/kg, 2.0 h): 0/4
- ED50, MES [8]: < 400 mg/kg
- ED50, MES ([8]; listed as 469016): <400.0 mg/kg
- N/F (animals protected over tested) ([8]; time to peak effect, 300 mg/kg, 0.25 h): 0/4
- N/F (animals protected over tested) ([8]; time to peak effect, 300 mg/kg, 0.5 h): 0/4
- N/F (animals protected over tested) ([8]; time to peak effect, 300 mg/kg, 1.0 h): 0/4
- N/F (animals protected over tested) ([8]; time to peak effect, 300 mg/kg, 2.0 h): 0/4
- N/F (animals protected over tested) ([8]; time to peak effect, 300 mg/kg, 4.0 h): 0/4
- N/F (animals protected over tested) ([8]; time to peak effect, 500 mg/kg, 0.25 h): 2/4
- N/F (animals protected over tested) ([8]; time to peak effect, 500 mg/kg, 1.0 h): 0/4
- N/F (animals protected over tested) ([8]; time to peak effect, 500 mg/kg, 2.0 h): 0/4
- N/F (animals protected over tested) ([8]; time to peak effect, 500 mg/kg, 4.0 h): 0/4

SMILES: Nc1nnc(-c2cccc(Cl)c2Cl)c(N)n1 [lamotrigine]
- effect on locomotor seizure behavior ([1]; zebrafish, in vivo): no effect
